Experimental data published in patent US20080182805A1, “O-GlcNAcase-specific inhibitor and substrate engineered by the extension of the N-Acetyl moiety” (The Gov. of the U.S.A., as represented by the Secretary, …, priority 2007, published 2008).

Tests used:
HEX B = molecular target: T1, HEX B (Homo sapiens, UniProt P07686); assay: Inhibition of HEX B measured with nonselective fluorogenic substrate (3); format: biochemical; settings: fluorescence λex=485 nm, λem=535 nm
T1 sequence (P07686 122-556): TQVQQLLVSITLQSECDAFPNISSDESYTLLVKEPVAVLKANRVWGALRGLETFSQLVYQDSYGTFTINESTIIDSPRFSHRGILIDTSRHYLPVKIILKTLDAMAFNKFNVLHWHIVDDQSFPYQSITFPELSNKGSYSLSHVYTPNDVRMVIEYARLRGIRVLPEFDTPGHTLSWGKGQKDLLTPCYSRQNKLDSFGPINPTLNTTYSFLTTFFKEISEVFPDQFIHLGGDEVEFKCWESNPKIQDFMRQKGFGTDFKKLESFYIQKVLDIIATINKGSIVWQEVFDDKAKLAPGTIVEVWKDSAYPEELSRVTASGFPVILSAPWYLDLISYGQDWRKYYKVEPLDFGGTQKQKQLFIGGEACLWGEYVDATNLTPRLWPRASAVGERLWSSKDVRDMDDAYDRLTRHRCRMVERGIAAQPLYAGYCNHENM
Procedure: (§1) The analysis of (2) was accomplished using previously reported methods.^9,11 For the determination of the inhibitory selectivity of both PUGNAc (1) and 2 at O-GlcNAcase, HEX A, and HEX B, the nonselective fluorogenic substrate (3) was utilized. The level of inhibition was determined based upon the quantification of fluorescence measured in the absence and presence of both PUGNAc (1) and (2) (intensity of fluorescence was measured at λex=485 nm at λem=535 nm). The results are compiled in FIG. 2. The analysis of (4) as a highly specific substrate for O-GlcNAcase activity was performed by the parallel treatment of O-GlcNAcase and HEX A with varying concentrations of (4) over a 45 min incubation period and the quantification of the resulting fluorescence. The results are compiled in FIG. 3.

HEX A = molecular target: T2, HEX A (Homo sapiens, UniProt P06865+P07686); assay: Inhibition of HEX A measured with nonselective fluorogenic substrate (3); format: biochemical; settings: for inhibition of HEX A: fluorescence λex=485 nm, λem=535 nm
T2 sequence (P06865 89-529): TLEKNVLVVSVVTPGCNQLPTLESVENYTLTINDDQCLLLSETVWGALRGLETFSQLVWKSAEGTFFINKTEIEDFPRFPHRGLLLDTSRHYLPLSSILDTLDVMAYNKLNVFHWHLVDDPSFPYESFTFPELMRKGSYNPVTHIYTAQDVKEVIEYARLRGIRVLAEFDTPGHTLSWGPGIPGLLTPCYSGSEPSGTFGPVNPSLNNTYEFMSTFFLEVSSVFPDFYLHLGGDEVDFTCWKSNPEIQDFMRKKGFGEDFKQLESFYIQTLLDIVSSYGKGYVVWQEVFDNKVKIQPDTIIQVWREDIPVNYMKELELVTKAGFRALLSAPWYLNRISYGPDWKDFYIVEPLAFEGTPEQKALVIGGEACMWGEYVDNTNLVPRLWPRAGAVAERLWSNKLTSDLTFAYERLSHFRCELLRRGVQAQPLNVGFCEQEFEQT
T2 sequence (P07686 122-556): T1 sequence (P07686 122-556)
Procedure: as §1

fat cells = settings: cited from earlier work
O-GlcNAcase = molecular target: T3, O-GlcNAcase (Homo sapiens, UniProt O60502); assay: Inhibition of O-GlcNAcase measured with nonselective fluorogenic substrate (3); format: biochemical; settings: fluorescence λex=485 nm, λem=535 nm
T3 construct: made in house
T3 sequence (O60502 1-916): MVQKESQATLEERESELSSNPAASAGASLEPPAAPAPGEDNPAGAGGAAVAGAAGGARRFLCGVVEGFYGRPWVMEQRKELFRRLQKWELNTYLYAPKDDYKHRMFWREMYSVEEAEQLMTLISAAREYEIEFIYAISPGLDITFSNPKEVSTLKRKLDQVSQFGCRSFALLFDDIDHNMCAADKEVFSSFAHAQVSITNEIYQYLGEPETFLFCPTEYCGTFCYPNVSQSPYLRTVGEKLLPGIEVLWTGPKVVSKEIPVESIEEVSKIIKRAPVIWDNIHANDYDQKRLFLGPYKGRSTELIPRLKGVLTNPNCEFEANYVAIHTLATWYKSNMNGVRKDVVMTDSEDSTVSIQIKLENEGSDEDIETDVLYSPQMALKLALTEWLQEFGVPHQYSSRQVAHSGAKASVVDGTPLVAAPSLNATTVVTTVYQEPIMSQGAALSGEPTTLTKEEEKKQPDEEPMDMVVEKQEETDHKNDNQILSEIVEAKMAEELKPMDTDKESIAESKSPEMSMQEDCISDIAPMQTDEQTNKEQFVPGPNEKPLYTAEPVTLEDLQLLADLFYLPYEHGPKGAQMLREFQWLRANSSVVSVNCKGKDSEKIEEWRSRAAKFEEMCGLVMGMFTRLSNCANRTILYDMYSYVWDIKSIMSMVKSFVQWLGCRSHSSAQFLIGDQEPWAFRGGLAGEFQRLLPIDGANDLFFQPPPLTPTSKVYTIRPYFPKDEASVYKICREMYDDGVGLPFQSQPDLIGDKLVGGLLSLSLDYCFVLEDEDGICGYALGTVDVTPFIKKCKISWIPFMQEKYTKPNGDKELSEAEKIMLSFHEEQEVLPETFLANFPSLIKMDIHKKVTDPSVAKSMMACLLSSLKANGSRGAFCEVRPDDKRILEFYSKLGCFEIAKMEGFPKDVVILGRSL
Procedure: as §1

CC(=O)N[C@H]1/C(=N/OC(=O)Nc2ccccc2)O[C@H](CO)[C@@H](O)[C@@H]1O [PUGNAc, O-(2-acet-amido-2-deoxy-D-glucopyranosylidene)amino-N-phenylcarbamate]
inhibition of HEX B (HEX B): potently inhibit
inhibition of HEX A (HEX A): potently inhibit
effect on insulin resistance in fat cells (fat cells): induces insulin resistance
inhibition of O-GlcNAcase (O-GlcNAcase): potently inhibit

CCCCC(=O)N[C@H]1/C(=N/OC(=O)Nc2ccccc2)O[C@H](CO)[C@@H](O)[C@@H]1O [compound 2]
inhibition of HEX B (HEX B): total loss of inhibitory activity
concentration up to which selectivity (no inhibition) was verified against HEX A (HEX A): > 30 µM
inhibition of HEX A (HEX A): total loss of inhibitory activity
inhibition of O-GlcNAcase (O-GlcNAcase): slightly decreases the inhibitory potency
